# Data from patent publication US12605330B2, “Screening method for offensive odor-suppressing material” (Takasago International Corporation, priority 2019, dated 2026).
# Experiments:
# [1] = molecular target: T1, human olfactory receptor OR4Q3 (Homo sapiens, UniProt Q8NH05); experiment: Luciferase reporter gene assay, response of olfactory receptor OR4Q3 to odorous substance; assay type: cell-based; conditions: HEK293T cells expressing OR4Q3, various concentrations, 3 hours stimulation; FIGS. 2, 4, 5, 6
# T1 construct: N-terminal 20 amino acid residues of bovine rhodopsin (Rho tag); expressed in transfected cells; host or cells: HEK293T cells, pME18S expression vector, co-transfected with RTP1S vector and luciferase reporters
# T1 sequence (Q8NH05 1-313): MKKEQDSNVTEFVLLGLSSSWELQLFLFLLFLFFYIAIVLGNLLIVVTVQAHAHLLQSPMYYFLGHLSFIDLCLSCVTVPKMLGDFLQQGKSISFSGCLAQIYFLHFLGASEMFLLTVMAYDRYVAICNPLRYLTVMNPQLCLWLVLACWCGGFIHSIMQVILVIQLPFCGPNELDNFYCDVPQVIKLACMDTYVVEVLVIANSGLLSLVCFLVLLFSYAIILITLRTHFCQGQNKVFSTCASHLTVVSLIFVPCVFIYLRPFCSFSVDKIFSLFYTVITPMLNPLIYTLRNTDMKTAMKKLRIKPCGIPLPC
# Description: (§1) Human olfactory receptor genes were obtained by PCR cloning with Human Genomic DNA: Female (Promega) on the basis of their sequence information registered in GenBank. Into pME18S vectors, the N-terminal 20 amino acid residues of bovine rhodopsin were integrated and the resulting human olfactory receptor genes were integrated respectively downstream thereof to obtain human olfactory receptor gene expression vectors.
# (§2) Each human olfactory receptor gene expression vector (0.05 μg), RTP1S vector (0.01 μg), firefly luciferase vector pGL4.29 containing a cAMP response element promoter (Promega, 0.01 μg) and Renilla luciferase vector pGL4.74 containing a thymidine kinase promoter (Promega, 0.005 μg) were dissolved in 10 μL of Opti-MEMI (gibco) to give a gene solution (for one well). HEK293T cells were seeded in 100 μL volumes into 96-well plates (Biocoat, Corning) at a cell density reaching confluence after 24 hours, and the gene solutions were added to the respective wells to cause gene transfer into the cells by lipofection techniques in accordance with the usage of Lipofectamine 3000, followed by culture at 37° C. under a 5% carbon dioxide atmosphere for 24 hours.
# (§3) After removal of the culture solutions, an odorous substance serving as an analyte, which had been prepared at a given concentration with CD293 (gibco) medium (supplemented with […] L-glutamine), was added in 50 μL volumes to stimulate the cells for 3 hours, followed by luciferase activity measurement in accordance with the usage of a Dual-Luciferase Reporter Assay System (Promega). The response intensity of each olfactory receptor polypeptide was expressed as a fold increase value, which was determined by dividing the luciferase activity generated upon stimulation with the odorous substance by the luciferase activity generated in a test system not containing the odorous substance.
# (§4) The cells engineered to express human olfactory receptors OR2C1 and OR4Q3 were used to measure the response of these receptors to various concentrations of 1-octen-3-one by the luciferase reporter gene assay.
# [2] = test system: cells not engineered to express the olfactory receptors; experiment: Mock test, luciferase reporter gene assay; assay type: cell-based, human
# Description: as §2, §3, §4
# [3] = background art; cited from earlier work
# olfactory receptor OR2W1 = molecular target: T2, olfactory receptor OR2W1 (Homo sapiens, UniProt Q9Y3N9); conditions: background art; cited from earlier work
# T2 sequence (Q9Y3N9 1-320): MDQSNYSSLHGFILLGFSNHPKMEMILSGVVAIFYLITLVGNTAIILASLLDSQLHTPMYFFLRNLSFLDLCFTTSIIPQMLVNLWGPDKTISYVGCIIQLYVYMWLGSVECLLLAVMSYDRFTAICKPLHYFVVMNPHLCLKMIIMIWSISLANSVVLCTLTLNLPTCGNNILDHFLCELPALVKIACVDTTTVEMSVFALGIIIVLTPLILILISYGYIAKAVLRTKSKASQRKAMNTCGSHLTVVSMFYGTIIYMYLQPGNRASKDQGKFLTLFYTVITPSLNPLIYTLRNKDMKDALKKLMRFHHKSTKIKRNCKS
# OR2C1 = molecular target: T3, OR2C1 (Homo sapiens, UniProt O95371); experiment: Suppressive effect of offensive odor-suppressing materials on the response of OR2C1 (luciferase reporter gene assay); assay type: cell-based; conditions: mixed at various concentrations with 30 μM 1-octen-3-one; FIGS. 7 and 8
# T3 construct: N-terminal 20 amino acid residues of bovine rhodopsin (Rho tag); expressed in transfected cells; host or cells: HEK293T cells, pME18S expression vector, co-transfected with RTP1S vector and luciferase reporters
# T3 sequence (O95371 1-312): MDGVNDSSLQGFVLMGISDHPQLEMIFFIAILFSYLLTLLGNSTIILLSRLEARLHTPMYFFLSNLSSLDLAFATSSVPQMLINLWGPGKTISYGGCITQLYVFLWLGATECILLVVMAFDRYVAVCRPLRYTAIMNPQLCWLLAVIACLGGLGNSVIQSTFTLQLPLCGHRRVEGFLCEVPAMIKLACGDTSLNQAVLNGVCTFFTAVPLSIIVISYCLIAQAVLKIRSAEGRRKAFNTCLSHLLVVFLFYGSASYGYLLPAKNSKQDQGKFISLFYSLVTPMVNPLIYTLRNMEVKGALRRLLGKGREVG
# Description: as §1, with “vectors. […]” for “vectors.”
# as §3, with “substance. […]” for “substance.”
# [4] = molecular target: T4, human olfactory receptor OR2C1 (Homo sapiens, UniProt O95371); experiment: Luciferase reporter gene assay, response of olfactory receptor OR2C1 to odorous substance; assay type: cell-based; conditions: HEK293T cells expressing OR2C1, various concentrations, 3 hours stimulation; FIGS. 1 and 3
# T4 construct: N-terminal 20 amino acid residues of bovine rhodopsin (Rho tag); expressed in transfected cells; host or cells: HEK293T cells, pME18S expression vector, co-transfected with RTP1S vector and luciferase reporters
# T4 sequence (O95371 1-312): T3 sequence (O95371 1-312)
# Description: as §1, with “vectors. […]” for “vectors.”
# as §3, with “substance. […]” for “substance.”
SMILES,response of OR4Q3 to the odorous substance (fold increase value) [1],response in Mock test [2],other results
C=CC(O)CCCCC (stereo not drawn) [1-octen-3-ol],respond to 1-octen-3-ol in a concentration-dependent manner,no response was observed,–
CC(C)c1cccc(C(C)CC=O)c1 (stereo not drawn) [florhydral],–,–,suppression of offensive odor induced by hexanoic acid in sensory testing [3]: suppress an offensive odor induced by hexanoic acid; inhibition of the activity of OR2W1 (olfactory receptor OR2W1): inhibiting the activity of this OR2W1
"CCCC(O)CCC1C(C)CCCC1(C)C (stereo not drawn) [1-(2,2,6-trimethylcyclohexyl)hexan-3-ol]",–,–,"suppressive effect on the response of OR2C1 to 1-octen-3-one (ratio of fold increase value, without material set to 100) (OR2C1): reducing the response of OR2C1 to 1-octen-3-one in a concentration-dependent manner"
C=CC(=O)CCCCC [1-octen-3-one],respond to 1-octen-3-one in a concentration-dependent manner,no response was observed,response of OR2C1 to the odorous substance (fold increase value) [4]: respond to 1-octen-3-one in a concentration-dependent manner
"C=CC(O)CC=CCC (stereo not drawn) [1,5-octadien-3-ol]","respond to 1,5-octadien-3-ol in a concentration-dependent manner",no response was observed,–
"C=CC(=O)CC=CCC [1,5-octadien-3-one]","respond to 1,5-octadien-3-one in a concentration-dependent manner",no response was observed,"response of OR2C1 to the odorous substance (fold increase value) [4]: respond to 1,5-octadien-3-one in a concentration-dependent manner"
CCCCCC(=O)O [hexanoic acid],–,–,response of OR2W1 to the odorous substance (olfactory receptor OR2W1): responds to hexanoic acid
"CC(=CCC1CC=C(C)C1(C)C)CO (stereo not drawn) [2-methyl-4-(2,2,3-trimethylcyclopent-3-enyl)but-2-en-1-ol]",–,–,"suppressive effect on the response of OR2C1 to 1-octen-3-one (ratio of fold increase value, without material set to 100) (OR2C1): reducing the response of OR2C1 to 1-octen-3-one in a concentration-dependent manner"
